In patent US9217012B2, “Inhibitors of protein tyrosine phosphatases” (Indiana University Research and Technology Corporation, priority 2009, dated 2015):
Several values for one entry are separate records, joined by “and”; a condition that tells them apart may be missing. Equal entries are not always repeated. Entries after “also recorded” stand apart in the source; their conditions may differ. Where two headings read alike, the source gives them in different places.

What was measured:
TC-PTP = TC-PTP (Homo sapiens (Human), UniProt P17706); assay: PTP activity assay with pNPP substrate, TC-PTP; type: biochemical
Description: (§1) The PTP activity was assayed using p-nitrophenyl phosphate (pNPP) as a substrate in DMG buffer at 25° C. […] The reaction rate was measure using a SPECTRAMAX microplate spectrophotometer (Molecular Devices). For the determination of Km, the initial velocity and substrate concentration data were fitted to Michaelis-Menten equation using SIGMAPLOT. […] The assays were performed in 96-well plates. […] The reaction rate was measured using a Spectra Max Plus 384 Microplate Spectrophotometer (Molecular Devices). […] The reactions were incubated at room temperature for 30 min and quenched with 5N NaOH. The absorbance at 405 nm was read on the SpectraMax Plus 384 Microplate Spectrophotometer. For the reversibility test, the enzyme was incubated with the inhibitor at room temperature for 30 min before pNPP was added to initiate the reaction. The reaction was then incubated at room temperature for 30 min and quenched and read. […] Data were fitted using SigmaPlot Enzyme Kinetics Module (Systat Software, Inc.)

PTP1B = PTP1B (Homo sapiens (Human), UniProt P18031); assay: PTP activity assay with pNPP substrate, PTP1B; type: biochemical
Description: as §1

SHP2 = SHP2 (Homo sapiens (Human), UniProt Q06124); assay: PTP selectivity panel (pNPP), SHP2; type: biochemical; details: Table 3
Description: (§2) PTP activity was assayed using p-nitrophenyl phosphate (pNPP) as a substrate in DMG buffer (50 mM DMG, pH 7.0, 1 mM EDTA, 150 mM NaCl, 2 mM DTT, 0.1 mg/mL BSA) at 25° C. The assays were performed in 96-well plates. Normally, to determine the IC50 values, the reaction was initiated by the addition of enzyme (final concentration of 10 nM) to a reaction mixture (0.2 mL) containing 2 mM (Km for the substrate) pNPP with various concentrations of inhibitors. The reaction rate was measured using a Spectra Max Plus 384 Microplate Spectrophotometer (Molecular Devices). For compound 10, the final TC-PTP concentration was 0.04 nM. The reactions were incubated at room temperature for 30 min and quenched with 5N NaOH. The absorbance at 405 nm was read on the SpectraMax Plus 384 Microplate Spectrophotometer. For the reversibility test, the enzyme was incubated with the inhibitor at room temperature for 30 min before pNPP was added to initiate the reaction. The reaction was then incubated at room temperature for 30 min and quenched and read. […] To determine the mode of inhibition, the reactions were initiated by the additional enzyme (final concentration for TC-PTP was 0.4 nM and for PTP was 2 nM) to the reaction mixtures (0.2 mL) containing various concentrations of pNPP with different concentrations of the inhibitor. Data were fitted using SigmaPlot Enzyme Kinetics Module (Systat Software, Inc.)

He-PTP = He-PTP (Homo sapiens (Human), UniProt P35236); assay: PTP selectivity panel (pNPP), He-PTP; type: biochemical; details: Table 3
Description: as §2

Lyp = Lyp (Homo sapiens (Human), UniProt Q9Y2R2); assay: PTP selectivity panel (pNPP), Lyp; type: biochemical; details: Table 3
Description: as §2

FAP1 = FAP1 (Homo sapiens (Human), UniProt Q12923); assay: PTP selectivity panel (pNPP), FAP1; type: biochemical; details: Table 3
Description: as §2

PTP-Meg2 = PTP-Meg2 (Homo sapiens (Human), UniProt P43378); assay: PTP selectivity panel (pNPP), PTP-Meg2; type: biochemical; details: Table 3
Description: as §2

PTPα = PTPα (Homo sapiens (Human), UniProt P18433); assay: PTP selectivity panel (pNPP), PTPα; type: biochemical; details: Table 3
Description: as §2

LAR = LAR (Homo sapiens (Human), UniProt P10586); assay: PTP selectivity panel (pNPP), LAR; type: biochemical; details: Table 3
Description: as §2

CD45 = CD45 (Homo sapiens (Human), UniProt P08575); assay: PTP selectivity panel (pNPP), CD45; type: biochemical; details: Table 3
Description: as §2

Cdc14A = Cdc14A (Homo sapiens (Human), UniProt Q9UNH5); assay: PTP selectivity panel (pNPP), Cdc14A; type: biochemical; details: Table 3
Description: as §2

VHR = VHR (Homo sapiens (Human), UniProt P51452); assay: PTP selectivity panel (pNPP), VHR; type: biochemical; details: Table 3
Description: as §2

VHX = VHX (Homo sapiens (Human), UniProt Q9NRW4); assay: PTP selectivity panel (pNPP), VHX; type: biochemical; details: Table 3
Description: as §2

LMWPTP = LMWPTP (Homo sapiens (Human), UniProt P24666); assay: PTP selectivity panel (pNPP), LMWPTP; type: biochemical; details: Table 3
Description: as §2

[1] = system: EGFR phosphorylation in PTP1B−/− mouse embryo fibroblast cells; assay: Effect of TC-PTP inhibitor on EGFR phosphorylation (anti-pTyr immunoblot); type: cell-based; details: for increase in EGFR phosphorylation compared to DMSO: EGF 2 ng/ml 10 min
Description: To determine the cellular efficacy of 10, its effect on tyrosine phosphorylation of EGFR, a known substrate of TC-PTP (Tiganis et al., 1998; Klingler-Hoffmann et al., 2001; Mattila et al., 2005) was assessed using an antibody against pTyr. The cells were incubated with 10 for 2 hr and subsequently treated either with or without EGF (2 ng/ml) for 10 min.
PTP1B^−/− cells were treated with TC-PTP inhibitor at indicated concentration for 2 h before EGF treatment. After EGF treatment (2 ng/ml) for 10 min, cells were lysed in 10 mM HEPES, pH 7.4, 150 mM NaCl, 10% Glycerol, 10 mM sodium phosphate, 10 mM sodium fluoride, 1 mM sodium pervanadate, 1 mM benzamidine, 1% Triton X-100, 10 μg/ml leupeptin, and 5 μg/ml aprotinin. Cell lysates were cleared by centrifugation at 15,000 rpm for 10 min. The lysate protein concentration was estimated using the BCA protein assay kit (PIERCE). To detect EGFR phosphorylation levels, 10 μg of anti-EGFR antibody (CELL SIGNALING, #2232) was added to 1 mg of cell lysate and incubated at 4° C. for 2 h. […] of protein A/G-agarose beads were then added and incubated for another 2 h. After extensive washing, the protein complex was boiled with sample buffer, separated by SDS-PAGE, transferred electrophoretically to PVDF membrane, and immunoblotted with anti-pTyr antibodies (MILLIPORE, #05-1050) followed by incubation with horseradish peroxidase-conjugated secondary antibodies. The blots were developed by the enhanced chemiluminescence technique (ECL kit, AMERSHAM BIOSCIENCES).
PTP1B^−/− mouse embryo fibroblast cells were treated with TC-PTP inhibitor at the indicated concentration for 2 h prior to EGF treatment. After EGF treatment (2 ng/mL) for 10 min, cells were lysed in 10 mM HNEPES, pH 7.4, […], 10% Glycerol, 10 mM sodium phosphate, 10 mM sodium fluoride, 1 mM sodium pervanadate, 1 mM benzamidine, 1% Triton X-100, 10 μg/mL leupeptin, and 5 μg/mL aprotinin. Cell lysates were cleared by centrifugation at 15 000 rpm for 10 min. The lysate protein concentration was estimated using the BAC protein assay kit (Pierce). To detect EGFR phosphorylation levels, 10 μg of anti-EGFR antibody (Cell Signaling, #2232) were added to 1 mg of cell lysate and incubated at 4° C. for 2 h. 20 μL of protein A/G-agarose beads were then added and incubated for another 2 hr. After extensive washing, the protein complex was boiled with sample buffer, separated by SDS-PAGE, transferred electrophoretically to a PVDF membrane, and immunoblotted with anti-pTyr antibodies (Millipore, #5-1050) followed by incubation with horseradish peroxidase conjugalated secondary antibodies. The blots were developed by enhanced chemiluminescence technique (ECL kit, Amersham Biosciences).
The cellular efficacy of compound 10 was assessed by examining its effect on tyrosine phosphorylation of EGFR, a known substrate of TC-PTP. Referring now to FIG. 2 B. PTP1B^−/− mouse embryo filbroblast cells were incubated with compound 10 at various concentrations for 2 h and subsequently treated either with or without EGF (2 ng/mL) for 10 min Inhibition of TC-PTP is expected to enhance endrogenous levels of phosphorylated EGFR. […] Remarkably, the phosphorylated form of EGFR is increased nearly 2-fold even at an inhibitor concentration of 5 nM (1.2×Ki).

[2] = system: Src phosphorylation in PTP1B−/− mouse embryo fibroblast cells; assay: Effect on Src phosphorylation (pSrc416, pSrc527 immunoblot); type: cell-based; details: 2 h treatment
Description: To study the effect of compound 10 on Src phosphorylation, PTP1B^−/− mouse embryo fibroblast cells were grown to 80% confluence before being treated with TC-PTP inhibitor 10 for 2 h. Cells were lysed, and the lysates were cleared by centrifugation at 15 000 rpm for 10 min. 30 μg of total proteins were boiled with sample buffer, separated by SDS-PAGE, transferred electrophoretically to a PVDF membrane, and immunoblotted with anti-pSrc416, anti-pSrc527 antibodies (Invitrogen 44-660G and 44-662G) and antic-Src antibody (Cell Singling Technology #2108) followed by incubation with horseradish peroxidase conjugated secondary antibodies. The blots were developed by the enhanced chemiluminesence technique (ECL kit, Amersham Biosciences).
To further investigate the specificity of compound 10 inside the cells, the ability of compound 10 to effect Src kinase phosphorylation within the same cells was measured. Src activity is regulated by phosphorylation at two distinct tyrosine residues. Autophosphorylation of Tyr416 in the kinase domain activates Src, while phosphorylation of Tyr527 in the C-terminal tail by the C-terminal Src kinase (Csk) blocks Src activity. Previous studies have shown that PTP1B can remove the inhibitory phosphate from pSrc527, while TC-PTP is capable of dephosphorylating pSrc416 (van Vilet et al., 2005; Bjorge, et al., 2000).

[3] = system: CD4 T-cells recovered from patients with type 1 diabetes; assay: pSTAT5 response to IL-2 in CD4 T-cells from type 1 diabetes patients; type: cell-based, human; details: cells with elevated TC-PTP pre-treated with compound
Description: An increase in expression of TC-PTP type 1 diabetic subject correlates with a decrease in STAT5 activation (Long et al., 2010). The protein expression levels of STAT5, JAK1, JAK3, and the negative regulator, TC-PTP, and CD4 T-cells of control and type 1 diabetic subjects were measured. […] No differences were found in STAT5, JAK3, or JAK1 protein expression levels between cells from the control group and the group diagnosed with type 1 diabetes. In contrast, TC-PTP expression was uniform in cells recovered from the control group but was increased overall in cells collected from patients with type 1 diabetes. […] This increased expression of TC-PTP correlated with decreased levels of pSTAT5 levels measured after exposure to IL-2.

PTP1B, sequence (P18031 whole entry, species assumed): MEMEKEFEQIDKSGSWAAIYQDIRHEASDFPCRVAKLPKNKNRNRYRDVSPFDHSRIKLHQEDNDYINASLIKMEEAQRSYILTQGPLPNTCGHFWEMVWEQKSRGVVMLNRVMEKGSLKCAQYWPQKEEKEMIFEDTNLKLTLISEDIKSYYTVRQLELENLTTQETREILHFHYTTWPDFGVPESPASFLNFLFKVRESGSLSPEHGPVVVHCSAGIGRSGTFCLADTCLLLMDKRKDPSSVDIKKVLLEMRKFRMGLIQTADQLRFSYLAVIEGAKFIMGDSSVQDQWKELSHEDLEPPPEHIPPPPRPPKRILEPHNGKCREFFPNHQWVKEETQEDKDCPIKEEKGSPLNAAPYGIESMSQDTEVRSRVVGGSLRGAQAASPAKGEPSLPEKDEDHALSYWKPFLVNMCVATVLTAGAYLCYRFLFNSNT
TC-PTP, sequence (P17706 whole entry): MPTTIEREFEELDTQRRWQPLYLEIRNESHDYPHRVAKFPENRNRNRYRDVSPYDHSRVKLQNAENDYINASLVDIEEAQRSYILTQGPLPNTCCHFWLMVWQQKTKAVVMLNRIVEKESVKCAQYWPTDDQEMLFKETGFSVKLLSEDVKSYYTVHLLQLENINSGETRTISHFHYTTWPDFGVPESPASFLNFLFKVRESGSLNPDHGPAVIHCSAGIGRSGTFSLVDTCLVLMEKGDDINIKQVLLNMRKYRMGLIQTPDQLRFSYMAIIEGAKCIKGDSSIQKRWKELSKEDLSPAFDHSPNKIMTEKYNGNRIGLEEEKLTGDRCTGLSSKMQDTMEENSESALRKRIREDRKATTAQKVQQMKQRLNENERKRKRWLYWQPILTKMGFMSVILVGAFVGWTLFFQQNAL
PTP-Meg2, sequence (P43378 whole entry): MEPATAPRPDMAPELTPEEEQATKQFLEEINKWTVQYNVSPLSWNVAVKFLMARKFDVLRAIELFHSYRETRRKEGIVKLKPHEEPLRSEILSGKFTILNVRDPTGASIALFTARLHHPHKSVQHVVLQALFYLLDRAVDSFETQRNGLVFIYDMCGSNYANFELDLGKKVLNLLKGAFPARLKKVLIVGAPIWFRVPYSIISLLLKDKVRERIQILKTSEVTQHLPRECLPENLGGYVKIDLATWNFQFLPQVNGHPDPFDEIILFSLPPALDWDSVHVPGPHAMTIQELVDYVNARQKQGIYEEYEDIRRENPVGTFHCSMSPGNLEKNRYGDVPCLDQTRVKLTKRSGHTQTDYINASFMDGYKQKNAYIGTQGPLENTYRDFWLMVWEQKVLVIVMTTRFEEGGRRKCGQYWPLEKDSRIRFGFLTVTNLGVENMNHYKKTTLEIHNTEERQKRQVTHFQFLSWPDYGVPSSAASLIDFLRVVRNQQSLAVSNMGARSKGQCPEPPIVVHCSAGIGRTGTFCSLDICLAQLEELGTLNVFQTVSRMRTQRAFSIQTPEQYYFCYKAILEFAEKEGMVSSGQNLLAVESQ
LMWPTP, sequence (P24666 whole entry, species assumed): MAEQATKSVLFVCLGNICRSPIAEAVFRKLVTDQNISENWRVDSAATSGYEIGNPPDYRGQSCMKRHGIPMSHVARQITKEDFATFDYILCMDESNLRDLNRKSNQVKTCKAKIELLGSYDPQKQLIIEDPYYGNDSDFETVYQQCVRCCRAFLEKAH
LAR, sequence (P10586 whole entry, looked up, species assumed): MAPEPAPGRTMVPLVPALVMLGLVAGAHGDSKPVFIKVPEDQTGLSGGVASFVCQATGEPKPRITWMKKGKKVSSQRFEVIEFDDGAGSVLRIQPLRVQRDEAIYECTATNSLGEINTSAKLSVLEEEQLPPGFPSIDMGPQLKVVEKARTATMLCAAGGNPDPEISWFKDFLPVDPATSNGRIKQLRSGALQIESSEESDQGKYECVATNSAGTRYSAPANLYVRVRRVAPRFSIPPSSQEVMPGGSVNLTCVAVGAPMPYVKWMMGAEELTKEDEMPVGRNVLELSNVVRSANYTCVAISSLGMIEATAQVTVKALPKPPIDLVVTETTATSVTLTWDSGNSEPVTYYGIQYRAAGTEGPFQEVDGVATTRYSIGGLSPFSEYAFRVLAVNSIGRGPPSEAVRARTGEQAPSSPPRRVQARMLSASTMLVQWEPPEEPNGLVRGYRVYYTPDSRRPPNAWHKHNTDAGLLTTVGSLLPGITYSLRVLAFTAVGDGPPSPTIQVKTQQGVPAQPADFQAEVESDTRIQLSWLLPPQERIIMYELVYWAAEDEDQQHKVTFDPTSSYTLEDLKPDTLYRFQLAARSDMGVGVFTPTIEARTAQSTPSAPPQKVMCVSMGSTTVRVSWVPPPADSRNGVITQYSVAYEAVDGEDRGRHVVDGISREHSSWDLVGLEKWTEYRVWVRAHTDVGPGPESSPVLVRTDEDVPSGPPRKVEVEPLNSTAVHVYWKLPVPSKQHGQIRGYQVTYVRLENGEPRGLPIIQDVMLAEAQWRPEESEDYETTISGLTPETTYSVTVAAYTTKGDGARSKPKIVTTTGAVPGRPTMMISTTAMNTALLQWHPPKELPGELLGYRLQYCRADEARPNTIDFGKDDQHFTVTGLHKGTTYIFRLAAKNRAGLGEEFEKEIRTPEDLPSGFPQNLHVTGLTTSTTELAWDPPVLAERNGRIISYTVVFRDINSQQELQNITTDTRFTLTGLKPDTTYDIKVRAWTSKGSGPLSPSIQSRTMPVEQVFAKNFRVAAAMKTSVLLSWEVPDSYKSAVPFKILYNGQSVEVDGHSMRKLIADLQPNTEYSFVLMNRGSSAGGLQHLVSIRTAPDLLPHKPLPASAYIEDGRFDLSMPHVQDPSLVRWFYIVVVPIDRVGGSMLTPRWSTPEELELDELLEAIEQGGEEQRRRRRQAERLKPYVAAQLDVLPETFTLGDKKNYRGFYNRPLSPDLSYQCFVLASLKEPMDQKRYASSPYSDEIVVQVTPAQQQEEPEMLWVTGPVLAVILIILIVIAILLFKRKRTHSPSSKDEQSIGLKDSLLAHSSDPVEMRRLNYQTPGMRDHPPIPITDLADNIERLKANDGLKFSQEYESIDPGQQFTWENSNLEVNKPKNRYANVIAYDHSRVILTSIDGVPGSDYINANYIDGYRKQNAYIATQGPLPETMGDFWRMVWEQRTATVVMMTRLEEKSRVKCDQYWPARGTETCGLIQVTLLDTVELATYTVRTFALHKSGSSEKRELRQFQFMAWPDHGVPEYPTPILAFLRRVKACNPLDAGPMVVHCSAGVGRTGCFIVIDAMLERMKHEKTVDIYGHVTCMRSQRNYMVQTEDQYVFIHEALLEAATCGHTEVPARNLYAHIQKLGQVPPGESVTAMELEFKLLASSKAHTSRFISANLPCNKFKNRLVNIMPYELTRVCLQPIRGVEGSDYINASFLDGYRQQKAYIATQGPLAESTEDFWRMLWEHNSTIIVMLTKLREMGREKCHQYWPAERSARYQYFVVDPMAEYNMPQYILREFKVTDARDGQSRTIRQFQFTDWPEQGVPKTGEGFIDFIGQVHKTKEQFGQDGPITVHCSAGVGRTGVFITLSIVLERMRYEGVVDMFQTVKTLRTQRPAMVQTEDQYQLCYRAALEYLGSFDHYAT
VHX, sequence (Q9NRW4 whole entry): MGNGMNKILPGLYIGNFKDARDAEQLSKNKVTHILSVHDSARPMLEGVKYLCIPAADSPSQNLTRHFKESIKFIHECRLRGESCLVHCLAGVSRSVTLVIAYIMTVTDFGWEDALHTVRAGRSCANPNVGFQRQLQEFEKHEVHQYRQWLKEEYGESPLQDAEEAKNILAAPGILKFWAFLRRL
VHR, sequence (P51452 whole entry, species assumed): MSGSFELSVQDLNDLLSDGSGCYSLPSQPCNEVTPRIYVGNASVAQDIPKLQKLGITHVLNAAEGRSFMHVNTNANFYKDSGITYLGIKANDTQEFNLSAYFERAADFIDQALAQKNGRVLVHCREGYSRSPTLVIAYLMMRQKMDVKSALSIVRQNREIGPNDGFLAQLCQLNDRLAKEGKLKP
SHP2, sequence (Q06124 whole entry, species assumed): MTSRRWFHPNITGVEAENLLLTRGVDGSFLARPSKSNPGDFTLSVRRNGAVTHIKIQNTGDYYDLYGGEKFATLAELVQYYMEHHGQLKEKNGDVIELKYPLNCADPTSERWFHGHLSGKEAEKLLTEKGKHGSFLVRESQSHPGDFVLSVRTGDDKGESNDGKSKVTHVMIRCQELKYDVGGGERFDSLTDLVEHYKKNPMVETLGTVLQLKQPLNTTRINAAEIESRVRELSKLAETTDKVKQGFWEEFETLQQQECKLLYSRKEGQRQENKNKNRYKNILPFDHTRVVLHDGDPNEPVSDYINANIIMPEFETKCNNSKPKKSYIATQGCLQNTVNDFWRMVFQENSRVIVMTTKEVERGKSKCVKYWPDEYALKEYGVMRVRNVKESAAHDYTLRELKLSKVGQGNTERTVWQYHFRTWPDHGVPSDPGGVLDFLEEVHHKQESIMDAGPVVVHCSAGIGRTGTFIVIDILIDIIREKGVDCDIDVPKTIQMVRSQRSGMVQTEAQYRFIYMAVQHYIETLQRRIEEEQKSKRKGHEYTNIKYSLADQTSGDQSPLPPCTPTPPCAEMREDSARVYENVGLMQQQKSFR
He-PTP, sequence (P35236 whole entry, species assumed): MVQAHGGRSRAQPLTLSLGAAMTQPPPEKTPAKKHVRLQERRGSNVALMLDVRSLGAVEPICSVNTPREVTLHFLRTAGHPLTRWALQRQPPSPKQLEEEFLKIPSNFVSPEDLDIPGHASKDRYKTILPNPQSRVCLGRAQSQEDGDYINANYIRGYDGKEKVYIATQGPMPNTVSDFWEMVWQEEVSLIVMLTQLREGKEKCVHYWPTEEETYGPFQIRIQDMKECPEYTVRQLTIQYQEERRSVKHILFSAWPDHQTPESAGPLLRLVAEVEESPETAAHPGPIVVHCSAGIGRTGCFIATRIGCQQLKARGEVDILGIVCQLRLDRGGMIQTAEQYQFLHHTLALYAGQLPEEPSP

With `CCc1ccc(C(=O)NCCCCC(NC(=O)C(Cc2ccc(C(F)(F)P(=O)(O)O)cc2)NC(=O)C(Cc2ccccc2)NC(=O)COC2CC(C)CCC2C(C)C)C(N)=O)cc1` (centres unmarked) [Compound 10] the IC50 (TC-PTP; IC50 with TC-PTP preincubation, enzyme preincubated with inhibitor 30 min, 0.04 nM TC-PTP) was 8.7 ± 1.4 nM, the IC50 (TC-PTP; IC50 without TC-PTP preincubation, no preincubation, 0.04 nM TC-PTP) was 9.2 ± 1.4 nM and the “selectivity for TC-PTP over PTP1B” value (TC-PTP; TC-PTP versus PTP1B) was 8 fold and 5.6 fold. The Ki (TC-PTP; Table 3, Example 13, read-out: Ki (TC-PTP)) was 4.3 ± 0.2 nM, the “mode of inhibition of TC-PTP” value (TC-PTP; kinetic analysis) was “reversible TC-PTP inhibitor; also recorded: reversible and competitive inhibitor” and the Ki (TC-PTP; tight binding inhibition equation, Table 1, read-out: Ki for TC-PTP) was 4.1 ± 0.2 nM. The “selectivity versus a panel of PTPs” value (TC-PTP; versus SHP2, Lyp, HePTP, PTP-Meg2, FAP1, CD45, LAR, PTPa, VHR, VHX, CDC14A, low molecular weight PTP) was “more than 200 fold”, the Ki (PTP1B; Table 3, Example 13, read-out: Ki (PTP1B)) was 34 ± 2.8 nM and the “mode of inhibition of PTP1B” value (PTP1B; kinetic analysis) was “reversible and competitive inhibitor”. For the same compound, the Ki (PTP1B; tight binding inhibition equation, Table 1, read-out: Ki for PTP1B) was 23.1 ± 0.7 nM, the Ki (SHP2) was over 1000 nM and the Ki (He-PTP) was over 1000 nM. It also gave a Ki (Lyp) of over 1000 nM, a Ki (FAP1) of over 1000 nM and a Ki (PTP-Meg2) of over 1000 nM. The Ki (PTPα) was over 1000 nM, the Ki (LAR) was over 1000 nM and the Ki (CD45) was over 1000 nM. For the same compound, the Ki (Cdc14A) was over 1000 nM, the Ki (VHR) was over 1000 nM and the Ki (VHX) was over 1000 nM. For the same compound, the Ki (LMWPTP) was over 1000 nM, the “effect on EGFR phosphorylation, dose dependence” value ([1]; 0-50 nM, 2 h) was “enhanced EGFR phosphorylaltion in a dose-dependent fashion; also recorded: augmented EGFR phosphorylation in a dose dependent manner” and the “increase in EGFR phosphorylation compared to DMSO” value (shortened to “increase in EGFR phosphorylation”) ([1]; 5 nM, 2 h) was ~2 fold and 1.9 fold. The “increase in EGFR phosphorylation” value ([1]; 10 nM, 2 h) was 3.4 fold, the “increase in EGFR phosphorylation” value ([1]; 20 nM, 2 h) was 3.9 fold and the “increase in EGFR phosphorylation” value ([1]; 50 nM, 2 h) was 5.0 fold. For the same compound, the pSrc416 phosphorylation [2] was “dose-dependent increase”, the pSrc527 phosphorylation [2] was “no significant change” and the “rescue of decreased response to IL-2 (pSTAT5)” value [3] was “rescued in a concentration dependent manner”.
With `CCc1ccc(C(=O)NCCCCC(NC(=O)C(Cc2ccccc2)NC(=O)C(Cc2ccccc2)NC(=O)COC2CC(C)CCC2C(C)C)C(N)=O)cc1` (centres unmarked) [Compound 11] the “effect on EGFR phosphorylation” value ([1]; 200 nM) was “no effect”.
With `CCc1ccc(C(=O)NCCCCC(NC(=O)C(Cc2ccc(C(F)(F)P(=O)(O)O)cc2)NC(=O)C(Cc2ccccc2)NC(C)=O)C(N)=O)cc1` (centres unmarked) [Compound 8] the IC50 (TC-PTP; 2 mM pNPP, DMG buffer, 25° C., Table 1, read-out: IC50 for TC-PTP) was 26 ± 2 nM, the “change in selectivity against PTP1B relative to 6” value (TC-PTP; relative to compound 6) was “no appreciable change” and the “fold increase in affinity for TC-PTP relative to 6” value (TC-PTP; relative to compound 6) was 6.2 fold. It also gave an IC50 (PTP1B; 2 mM pNPP, DMG buffer, 25° C., Table 1) of 87 ± 2 nM.
